Type in all cases: cell-based
One assay has as its target T1, Mer (Homo sapiens, UniProt Q12866).
T1 construct: host or cells: 293A cells (Thermo Fisher #R70507)
T1 sequence (Q12866 21-999): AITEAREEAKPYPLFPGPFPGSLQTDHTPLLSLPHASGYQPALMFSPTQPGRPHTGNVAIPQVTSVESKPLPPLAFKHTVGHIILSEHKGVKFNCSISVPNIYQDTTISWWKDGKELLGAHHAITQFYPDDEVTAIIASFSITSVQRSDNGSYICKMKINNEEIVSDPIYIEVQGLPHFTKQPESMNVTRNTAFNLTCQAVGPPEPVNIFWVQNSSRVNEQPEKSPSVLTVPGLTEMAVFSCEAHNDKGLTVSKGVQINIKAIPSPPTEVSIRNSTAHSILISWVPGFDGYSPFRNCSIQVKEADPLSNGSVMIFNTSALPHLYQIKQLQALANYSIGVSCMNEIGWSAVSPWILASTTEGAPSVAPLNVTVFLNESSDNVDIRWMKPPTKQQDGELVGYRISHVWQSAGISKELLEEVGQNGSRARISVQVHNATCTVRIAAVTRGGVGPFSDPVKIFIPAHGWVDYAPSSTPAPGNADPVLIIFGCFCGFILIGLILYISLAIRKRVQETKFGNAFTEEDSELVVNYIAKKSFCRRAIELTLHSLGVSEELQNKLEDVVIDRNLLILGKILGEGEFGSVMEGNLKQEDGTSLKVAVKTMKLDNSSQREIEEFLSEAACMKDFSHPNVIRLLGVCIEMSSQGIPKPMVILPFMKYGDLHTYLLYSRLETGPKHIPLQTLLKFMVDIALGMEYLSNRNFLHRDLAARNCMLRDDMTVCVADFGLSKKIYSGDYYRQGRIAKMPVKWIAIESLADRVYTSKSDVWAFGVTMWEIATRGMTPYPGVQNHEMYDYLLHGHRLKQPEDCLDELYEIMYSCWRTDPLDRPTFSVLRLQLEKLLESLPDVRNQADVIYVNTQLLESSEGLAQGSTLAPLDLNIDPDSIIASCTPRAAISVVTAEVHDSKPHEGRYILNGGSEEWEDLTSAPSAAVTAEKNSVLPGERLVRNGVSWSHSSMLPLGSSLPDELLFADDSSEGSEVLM
As to the kind of experiment: Mer autophosphorylation ELISA in transient transfected 293A cells. The conditions noted are these: Table 3 Cellular Activities; MERTK-transfected 293A cells, phospho-Mer ELISA. The method, then: 293A cells (Thermo Fisher #R70507) were seeded at 1.5×10^6 cells/well onto 100 mm dish (Greiner #664169), in DMEM (Thermo Fisher #11995-040) containing 10% FBS (Thermo Fisher #26140-079), 1% MEM NEAA (Thermo Fisher #11140-050), 1% GlutaMax (Thermo Fisher #35050-061), and 1% Penicillin Streptomycin (Thermo Fisher #15140-122). 293A cells were incubated at 37° C., 5% CO2 for 24 h and then transfected with 6μg MERTK DNA (Genecopoeia #EX-Z8208-M02) using TransIT LT1 transfection reagent (Mirus-Bio #MIR2305). After 24 h incubation, the transfected 293A cells were seeded at 1×10^5 cells/well onto 96-well plates (Corning #3904) in DMEM growth medium overnight. Test compounds were serially diluted to produce an 8-point dose curve in fresh serum-free medium to a final concentration of 0.3% DMSO (vehicle) and added to the cells and incubated for 1 h. Cells were then immediately lysed with 150 μL of cold 1× lysis buffer […], 137 mM sodium chloride, 2 mM EDTA, 10% glycerol, 1% NP-40 alternative, 1 mM activated sodium orthovanadate, 1 mM PefaBloc SC (Sigma-Aldrich #11429868001), protease/phosphatase inhibitor tablet (Thermo Fisher #A32959)]. Lysates were clarified by centrifugation and 50 μL/well added into the human phospho-Mer DuoSet IC ELISA (R&D Systems #DYC2579-2). Assay was performed according to manufacturer's instructions and sample phospho-Mer concentrations were extrapolated using human phospho-Mer control (R&D Systems #841793) as a standard. Positive control wells (100% activity) contained DMSO-treated cell lysates. Negative control wells (0% activity) contained reference inhibitor-treated cell lysates. IC50 values were calculated by nonlinear regression analysis using a 4-parameter logistic curve fit in ActivityBase XE (IDBS).
(ELISA stands for enzyme-linked immunosorbent assay.)

Another assay concerns the target KDR (Homo sapiens, UniProt P35968). The experiment in a line: KDR autophosphorylation ELISA in HUVEC cells. Details: endogenous in cells; host or cells: HUVEC (Lonza #C2519A). The conditions noted are these: Table 3 Cellular Activities, VEGF165-stimulated, phospho-KDR ELISA. The method, then:
Human umbilical vein endothelial cells or HUVEC (Lonza #C2519A) were seeded at 2×10^4 cells/well onto 96-well plates (Corning #3904), in EGM-2 growth medium (Lonza #CC-3162) containing 1% Penicillin Streptomycin (Thermo Fisher #15140-122). HUVEC cells were incubated at 37° C., 5% CO2 for 24 h and then starved for 24 h in serum-free EBM-2 basal medium (Lonza #CC-3156) containing 1% Penicillin Streptomycin. Test compounds were serially diluted to produce an 8-point dose curve in fresh serum-free medium to a final concentration of 0.3% DMSO (vehicle) and added to the cells and incubated for 1 h. Cells were then stimulated with 100 ng/mL recombinant human VEGF165 (R&D Systems #293-VE-500) for 5 min, washed with cold PBS, and immediately lysed with 130 μL of cold 1× lysis buffer [20 mM Tris, 137 mM sodium chloride, 2 mM EDTA, 10% glycerol, 1% NP-40 alternative, 1 mM activated sodium orthovanadate, 1 mM PefaBloc SC (Sigma-Aldrich #11429868001), protease/phosphatase inhibitor tablet (Thermo Fisher #A32959)]. Lysates were collected and 100 μL/well added into the human phospho-KDR DuoSet IC ELISA (R&D Systems #DYC1766-2). Assay was performed according to manufacturer's instructions and sample phospho-KDR concentrations were extrapolated using human phospho-KDR control (R&D Systems #841421) as a standard. Positive control wells (100% activity) contained VEGF165-stimulated, DMSO-treated cell lysates. Negative control wells (0% activity) contained non-stimulated cell lysates. IC50 values were calculated by nonlinear regression analysis using a 4-parameter logistic curve fit in ActivityBase XE (IDBS).

In another assay the target is Met (Homo sapiens, UniProt P08581). The experiment in a line: Met autophosphorylation ELISA in PC-3 cells. Details: endogenous in cells; host or cells: PC-3 prostate cancer cells (ATCC #CRL-1435). The conditions noted are these: Table 3 Cellular Activities, HGF-stimulated, phospho-Met ELISA, read-out: c-Met IC50. The protocol:
PC-3 prostate cancer cells (ATCC #CRL-1435) were seeded at 4×10^4 cells/well onto 24-well plates (Greiner #662165), in DMEM (Thermo Fisher #11995-040) containing 10% FBS (Thermo Fisher #26140-079), 1% MEM NEAA (Thermo Fisher #11140-050), 1% GlutaMax (Thermo Fisher #35050-061), and 1% Penicillin Streptomycin (Thermo Fisher #15140-122). PC-3 cells were incubated at 37° C., 5% CO2 for 24 h and then starved for 3 h in serum-free medium. Test compounds were serially diluted to produce an 8-point dose curve in fresh serum-free medium to a final concentration of 0.3% DMSO (vehicle) and added to the cells and incubated for 1 h. Cells were then stimulated with 100 ng/mL recombinant human HGF (R&D Systems #294-HG-250) for 10 min, washed with cold PBS, and immediately lysed with 130 μL of cold 1× lysis buffer [20 mM Tris, 137 mM sodium chloride, 2 mM EDTA, 10% glycerol, 1% NP-40 alternative, 1 mM activated sodium orthovanadate, 1 mM PefaBloc SC (Sigma-Aldrich #11429868001), protease/phosphatase inhibitor tablet (Thermo Fisher #A32959)]. Lysates were clarified by centrifugation and 100 μL/well added into the PathScan phospho-Met (panTyr) Sandwich ELISA (Cell Signaling Technology #7333). Assay was performed according to manufacturer's instructions. Positive control wells (100% activity) contained HGF-stimulated, DMSO-treated cell lysates. Negative control wells (0% activity) contained HGF-stimulated, reference inhibitor-treated cell lysates. IC50 values were calculated by nonlinear regression analysis using a 4-parameter logistic curve fit in ActivityBase XE (IDBS).

A value given as a limit tells only on which side of the number the result lay.

Sequence of KDR (P35968 20-1356): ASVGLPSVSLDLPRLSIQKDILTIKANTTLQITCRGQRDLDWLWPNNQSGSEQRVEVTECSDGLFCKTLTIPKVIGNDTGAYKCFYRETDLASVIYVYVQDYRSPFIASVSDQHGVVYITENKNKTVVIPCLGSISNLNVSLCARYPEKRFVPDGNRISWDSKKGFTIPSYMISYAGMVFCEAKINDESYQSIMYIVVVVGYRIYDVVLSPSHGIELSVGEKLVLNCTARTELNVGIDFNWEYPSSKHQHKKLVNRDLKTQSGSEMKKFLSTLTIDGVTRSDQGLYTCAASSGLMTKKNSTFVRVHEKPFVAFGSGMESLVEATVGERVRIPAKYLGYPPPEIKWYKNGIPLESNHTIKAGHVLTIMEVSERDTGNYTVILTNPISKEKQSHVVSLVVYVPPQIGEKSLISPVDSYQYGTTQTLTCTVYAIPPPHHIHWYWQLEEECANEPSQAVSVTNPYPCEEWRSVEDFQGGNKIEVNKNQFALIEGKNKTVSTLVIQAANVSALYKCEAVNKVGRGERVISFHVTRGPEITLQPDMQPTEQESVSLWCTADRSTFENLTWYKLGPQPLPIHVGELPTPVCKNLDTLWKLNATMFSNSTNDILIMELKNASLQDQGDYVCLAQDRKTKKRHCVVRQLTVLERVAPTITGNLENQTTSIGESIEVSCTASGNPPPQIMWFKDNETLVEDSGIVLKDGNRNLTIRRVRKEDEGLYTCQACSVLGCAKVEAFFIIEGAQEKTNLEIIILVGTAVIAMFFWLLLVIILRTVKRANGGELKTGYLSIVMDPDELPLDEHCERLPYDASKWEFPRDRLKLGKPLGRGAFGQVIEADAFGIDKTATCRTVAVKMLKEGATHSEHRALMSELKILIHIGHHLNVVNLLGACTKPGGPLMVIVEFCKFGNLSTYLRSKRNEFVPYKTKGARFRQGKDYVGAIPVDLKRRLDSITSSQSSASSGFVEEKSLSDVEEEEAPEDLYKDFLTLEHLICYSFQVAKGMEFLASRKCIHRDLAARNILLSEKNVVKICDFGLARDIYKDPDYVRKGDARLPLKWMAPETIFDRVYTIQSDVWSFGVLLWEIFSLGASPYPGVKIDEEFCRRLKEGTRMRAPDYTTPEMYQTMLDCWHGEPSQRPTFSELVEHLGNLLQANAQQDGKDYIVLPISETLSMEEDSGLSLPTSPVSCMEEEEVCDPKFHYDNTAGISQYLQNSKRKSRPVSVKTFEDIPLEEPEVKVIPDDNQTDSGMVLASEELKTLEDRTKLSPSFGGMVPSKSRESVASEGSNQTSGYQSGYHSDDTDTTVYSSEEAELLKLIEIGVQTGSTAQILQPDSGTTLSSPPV
Sequence of Met (P08581 25-1390): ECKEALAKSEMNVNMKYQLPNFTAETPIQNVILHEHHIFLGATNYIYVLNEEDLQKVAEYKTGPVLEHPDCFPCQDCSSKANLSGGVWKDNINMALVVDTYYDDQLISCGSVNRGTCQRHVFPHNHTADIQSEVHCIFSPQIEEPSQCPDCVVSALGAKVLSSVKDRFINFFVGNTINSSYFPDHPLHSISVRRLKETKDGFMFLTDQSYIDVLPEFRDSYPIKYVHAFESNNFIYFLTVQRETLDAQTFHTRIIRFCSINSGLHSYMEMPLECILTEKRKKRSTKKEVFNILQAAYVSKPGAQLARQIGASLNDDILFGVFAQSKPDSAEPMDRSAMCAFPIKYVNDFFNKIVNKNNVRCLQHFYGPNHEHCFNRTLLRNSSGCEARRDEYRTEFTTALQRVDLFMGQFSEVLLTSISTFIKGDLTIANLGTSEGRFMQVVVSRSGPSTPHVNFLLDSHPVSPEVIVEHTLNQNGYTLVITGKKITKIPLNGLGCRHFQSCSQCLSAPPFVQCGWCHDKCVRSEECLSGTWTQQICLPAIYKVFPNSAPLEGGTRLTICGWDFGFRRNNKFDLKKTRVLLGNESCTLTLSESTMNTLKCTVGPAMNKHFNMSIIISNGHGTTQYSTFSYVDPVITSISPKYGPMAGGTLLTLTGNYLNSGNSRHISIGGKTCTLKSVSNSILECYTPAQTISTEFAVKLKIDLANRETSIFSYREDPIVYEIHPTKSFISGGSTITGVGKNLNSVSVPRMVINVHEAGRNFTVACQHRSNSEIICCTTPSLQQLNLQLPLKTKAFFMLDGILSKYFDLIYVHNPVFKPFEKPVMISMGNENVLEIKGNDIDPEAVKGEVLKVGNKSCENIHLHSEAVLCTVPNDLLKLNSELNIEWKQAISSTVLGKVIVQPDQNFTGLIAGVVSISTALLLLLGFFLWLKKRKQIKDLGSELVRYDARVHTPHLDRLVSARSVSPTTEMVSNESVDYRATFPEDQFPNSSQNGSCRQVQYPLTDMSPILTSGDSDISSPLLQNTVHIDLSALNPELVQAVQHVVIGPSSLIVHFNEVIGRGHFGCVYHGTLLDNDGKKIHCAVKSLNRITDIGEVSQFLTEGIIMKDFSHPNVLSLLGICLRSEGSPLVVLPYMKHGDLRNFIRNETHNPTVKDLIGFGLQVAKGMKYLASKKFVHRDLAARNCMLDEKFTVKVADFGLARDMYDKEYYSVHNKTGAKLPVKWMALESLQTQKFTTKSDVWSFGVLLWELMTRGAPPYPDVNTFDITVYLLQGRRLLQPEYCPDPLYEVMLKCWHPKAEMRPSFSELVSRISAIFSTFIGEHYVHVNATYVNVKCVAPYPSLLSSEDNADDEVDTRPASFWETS

By IC50 is commonly meant the concentration at which inhibition is half-maximal. On to `COc1cc2nccc(Oc3ccc(NC(=O)c4c5n(c(C)c(-c6ccoc6)c4=O)CCOC5)cc3F)c2nc1OC` [Compound 308, N-[4-[(6,7-Dimethoxy-1,5-naphthyridin-4-yl)oxy]-3-fluorophenyl]-7-(furan-3-yl)-6-methyl-8-oxo-3,4-dihydro-1H-pyrido [2,1-c][1,4]oxazine-9-carboxamide], for which the IC50 at Mer is no more than 100 nM; on KDR, 300 to 1000 nM; at Met, no more than 100 nM.
For `COCc1nc(C)c(-c2ncccc2C)c(O)c1C(=O)Nc1ccc(Oc2ccnc3cc(OC)c(OC)nc23)c(F)c1` [Compound 196, N-[4-[(6,7-Dimethoxy-1,5-naphthyridin-4-yl)oxy]-3-fluorophenyl]-4-hydroxy-2-(methoxymethyl)-6-methyl-5-(3-methylpyridin-2-yl)pyridine-3-carboxamide], the IC50 at Mer, against KDR and on Met was no more than 100 nM throughout.
On to `COCCOc1cnc2c(Oc3ccc(NC(=O)c4c(C)n(C)c(C)c(-c5coc6ccccc56)c4=O)cc3F)ccnc2c1` [Compound 265, 5-(1-Benzofuran-3-yl)-N-[3-fluoro-4-[[7-(2-methoxyethoxy)-1,5-naphthyridin-4-yl]oxy]phenyl]-1,2,6-trimethyl-4-oxopyridine-3-carboxamide], for which the IC50 against Mer, at KDR and on Met was 300 to 1000 nM in each case.
With `COCCOc1cnc2c(Oc3ccc(NC(=O)c4c(C)n(C)c(C)c(-c5ccco5)c4=O)cc3F)ccnc2c1` [Compound 266, N-[3-Fluoro-4-[[7-(2-methoxyethoxy)-1,5-naphthyridin-4-yl]oxy]phenyl]-5-(furan-2-yl)-1,2,6-trimethyl-4-oxopyridine-3-carboxamide], the IC50 on Mer was no more than 100 nM; at KDR, 300 to 1000 nM; at Met, no more than 100 nM.
`COCc1nc(C)c(-c2cccc(C)n2)c(O)c1C(=O)Nc1ccc(Oc2ccnc3cc(OC)c(OC)nc23)c(F)c1` [Compound 197, N-[4-[(6,7-Dimethoxy-1,5-naphthyridin-4-yl)oxy]-3-fluorophenyl]-4-hydroxy-2-(methoxymethyl)-6-methyl-5-(6-methylpyridin-2-yl)pyridine-3-carboxamide]: the IC50 against Mer, at KDR and on Met was no more than 100 nM throughout.
As for `COc1cc2nccc(Oc3ccc(NC(=O)c4c(C)ncc(-c5ccc(C=O)o5)c4O)cc3F)c2nc1OC` [Compound 121, N-[4-[(6,7-Dimethoxy-1,5-naphthyridin-4-yl)oxy]-3-fluorophenyl]-5-(5-formylfuran-2-yl)-4-hydroxy-2-methylpyridine-3-carboxamide], the IC50 against Mer was no more than 100 nM; on KDR, no more than 100 nM; at Met, 100 to 300 nM.

The values above are taken from patent US20230151003A1, “COMPOUNDS AND METHODS OF USE” (Exelixis, Inc., priority 2020, published 2023).
